Reference: ChEMBL document CHEMBL1201862, “PubChem BioAssay data set” (2004)
The source made the active and inactive calls.

How the values were obtained:
[1] = Luminescence Cell-Based Dose Retest to Confirm Inhibitors of Cancer Stem Cells. [Related pubchem assays (depositor defined):AID2717, AID2721]; assay type: functional; conditions: Homo sapiens
[2] = target: T1, Cytochrome P450 1A2 (Homo sapiens, UniProt P05177);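 also: PubChem cytochrome P450 panel assay, CYP1A2 panel member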
T1 sequence (P05177 whole entry): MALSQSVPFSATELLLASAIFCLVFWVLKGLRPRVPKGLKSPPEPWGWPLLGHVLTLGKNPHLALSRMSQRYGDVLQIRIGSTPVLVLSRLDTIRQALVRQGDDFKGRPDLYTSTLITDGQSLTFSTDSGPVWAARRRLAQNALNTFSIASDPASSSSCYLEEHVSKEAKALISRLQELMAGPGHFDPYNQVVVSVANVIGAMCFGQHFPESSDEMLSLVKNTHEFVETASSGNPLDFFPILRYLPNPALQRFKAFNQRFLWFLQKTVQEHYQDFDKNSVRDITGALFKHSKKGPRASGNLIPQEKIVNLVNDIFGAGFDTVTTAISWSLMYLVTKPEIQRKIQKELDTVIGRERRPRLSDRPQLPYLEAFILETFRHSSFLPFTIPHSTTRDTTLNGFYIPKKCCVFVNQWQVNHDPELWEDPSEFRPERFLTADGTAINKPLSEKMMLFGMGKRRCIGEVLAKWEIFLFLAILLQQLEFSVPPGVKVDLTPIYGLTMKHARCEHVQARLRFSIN

[3] = viability of PTEN-deleted HCT116 cells – cell-based, HCT116 PTEN knockout, dose response (AID 1047); assay type: functional;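 also: HCT116 colon tumor cells with PTEN knocked out; cells exposed to compound for 60 hours before readout; potency for loss of cell viability measured by luminescence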
[4] = target: Cytochrome P450 2C9 (Homo sapiens, UniProt P11712)
Chain of Cytochrome P450 2C9 (P11712 whole entry): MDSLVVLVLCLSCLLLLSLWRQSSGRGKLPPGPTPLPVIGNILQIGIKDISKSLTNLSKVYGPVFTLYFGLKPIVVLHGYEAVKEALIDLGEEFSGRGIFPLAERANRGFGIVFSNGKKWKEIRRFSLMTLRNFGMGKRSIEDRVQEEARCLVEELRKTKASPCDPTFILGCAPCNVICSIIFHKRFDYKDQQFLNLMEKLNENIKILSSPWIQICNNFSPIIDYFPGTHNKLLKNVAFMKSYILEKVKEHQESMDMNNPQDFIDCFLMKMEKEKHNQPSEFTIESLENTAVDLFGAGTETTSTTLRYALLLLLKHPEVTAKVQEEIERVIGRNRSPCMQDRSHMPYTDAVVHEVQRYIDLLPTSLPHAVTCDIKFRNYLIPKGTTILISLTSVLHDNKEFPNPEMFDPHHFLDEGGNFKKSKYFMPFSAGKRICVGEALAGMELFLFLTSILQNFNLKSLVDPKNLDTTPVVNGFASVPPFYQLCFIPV

[5] = viability of HCT116 lacking mutant beta-catenin – cell-based, human colon tumor, dose response (AID 1045); assay type: functional;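 also: HCT116 colon tumor cells with beta catenin knocked out; cells exposed to compound for 60 hours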
[6] = P. falciparum Dd2 growth inhibitors, dose response, SYBR Green, cherry-picked samples (AID 1159567); assay type: functional, cell-based
[7] = target: Large T antigen (Simian virus 40, UniProt P03070); assay type: functional, Betapolyomavirus macacae;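 also: Confirmatory-stage PubChem screen for compounds that inhibit SV40 T antigen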
Chain of Large T antigen (P03070 whole entry): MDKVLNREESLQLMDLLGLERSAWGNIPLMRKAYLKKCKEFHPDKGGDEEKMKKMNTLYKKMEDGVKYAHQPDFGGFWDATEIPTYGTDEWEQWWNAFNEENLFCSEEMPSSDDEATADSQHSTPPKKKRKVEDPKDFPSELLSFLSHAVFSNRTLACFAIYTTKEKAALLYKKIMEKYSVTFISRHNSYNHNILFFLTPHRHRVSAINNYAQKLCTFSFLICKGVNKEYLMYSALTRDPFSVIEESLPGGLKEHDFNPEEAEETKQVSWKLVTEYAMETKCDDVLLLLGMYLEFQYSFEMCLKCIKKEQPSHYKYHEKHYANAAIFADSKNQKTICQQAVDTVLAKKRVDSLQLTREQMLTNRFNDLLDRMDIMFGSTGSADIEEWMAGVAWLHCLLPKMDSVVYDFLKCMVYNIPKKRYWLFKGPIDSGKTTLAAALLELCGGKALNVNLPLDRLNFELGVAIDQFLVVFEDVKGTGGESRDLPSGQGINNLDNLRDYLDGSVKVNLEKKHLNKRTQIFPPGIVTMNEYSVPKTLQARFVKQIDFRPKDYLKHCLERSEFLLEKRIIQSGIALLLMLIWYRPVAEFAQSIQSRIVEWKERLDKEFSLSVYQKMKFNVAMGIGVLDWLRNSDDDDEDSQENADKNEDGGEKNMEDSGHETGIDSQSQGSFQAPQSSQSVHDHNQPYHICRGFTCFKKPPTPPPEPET

[8] = target: T2, Heat shock factor protein 1 (Mus musculus, UniProt P38532); test: decrease of HSF1-responsive luciferase luminescence – cell-based, NIH3T3, dose retest, confirmation (AID 2382); assay type: functional;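 also: NIH3T3 fibroblasts with HSF1-driven luciferase reporter stressed by proteasome inhibitor MG132; luminescence from HSF1-driven luciferase expression after 8 hours of MG132 stress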
T2 sequence (P38532 whole entry): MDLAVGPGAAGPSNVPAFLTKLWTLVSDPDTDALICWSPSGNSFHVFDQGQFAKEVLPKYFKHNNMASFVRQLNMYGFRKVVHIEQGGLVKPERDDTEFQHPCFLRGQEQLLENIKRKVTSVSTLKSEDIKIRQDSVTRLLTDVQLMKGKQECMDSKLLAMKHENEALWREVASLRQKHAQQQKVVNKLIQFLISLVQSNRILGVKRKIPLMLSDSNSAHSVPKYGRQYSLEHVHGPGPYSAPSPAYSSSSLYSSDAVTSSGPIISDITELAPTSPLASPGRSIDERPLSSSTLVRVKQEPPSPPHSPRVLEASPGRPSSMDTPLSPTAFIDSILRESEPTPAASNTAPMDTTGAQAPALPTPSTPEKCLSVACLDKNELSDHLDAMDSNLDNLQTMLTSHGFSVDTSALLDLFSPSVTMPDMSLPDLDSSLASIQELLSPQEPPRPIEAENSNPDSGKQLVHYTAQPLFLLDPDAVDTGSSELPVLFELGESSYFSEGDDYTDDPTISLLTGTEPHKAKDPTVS

[9] = target: T3, Rac GTPase-activating protein 1 (Homo sapiens, UniProt Q9H0H5); test: blockers of MgcRacGAP-driven Rac1 GTP hydrolysis – biochemical, ADP Hunter fluorescence, primary and confirmatory, confirmation (AID 624330); assay type: functional
T3 sequence (Q9H0H5 whole entry): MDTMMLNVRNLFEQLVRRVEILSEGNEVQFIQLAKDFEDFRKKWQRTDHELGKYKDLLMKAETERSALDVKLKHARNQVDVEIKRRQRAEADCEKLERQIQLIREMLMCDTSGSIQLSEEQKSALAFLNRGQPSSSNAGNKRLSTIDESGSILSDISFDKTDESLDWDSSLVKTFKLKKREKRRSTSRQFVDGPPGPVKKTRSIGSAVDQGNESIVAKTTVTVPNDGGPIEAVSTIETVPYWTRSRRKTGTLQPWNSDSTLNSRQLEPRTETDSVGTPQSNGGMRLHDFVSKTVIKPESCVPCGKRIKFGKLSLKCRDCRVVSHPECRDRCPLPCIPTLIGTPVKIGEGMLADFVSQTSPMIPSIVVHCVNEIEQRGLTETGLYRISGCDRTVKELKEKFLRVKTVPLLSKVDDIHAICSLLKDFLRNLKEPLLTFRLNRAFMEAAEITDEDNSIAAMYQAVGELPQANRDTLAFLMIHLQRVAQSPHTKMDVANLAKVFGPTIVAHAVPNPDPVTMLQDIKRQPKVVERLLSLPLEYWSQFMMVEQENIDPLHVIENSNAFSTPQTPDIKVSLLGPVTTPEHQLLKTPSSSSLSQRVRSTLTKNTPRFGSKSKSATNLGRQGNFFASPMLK

[10] = target: T4, Streptokinase A (Streptococcus pyogenes serotype M1, UniProt P10520); test: viability-normalized secreted streptokinase activity reduction – plasminogen activation absorbance, OD405, dose response (AID 1914); assay type: functional, Streptococcus pyogenes M1 GAS;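 also: secreted streptokinase activity via plasminogen activation per viability signal from cell pellet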
T4 sequence (P10520 whole entry): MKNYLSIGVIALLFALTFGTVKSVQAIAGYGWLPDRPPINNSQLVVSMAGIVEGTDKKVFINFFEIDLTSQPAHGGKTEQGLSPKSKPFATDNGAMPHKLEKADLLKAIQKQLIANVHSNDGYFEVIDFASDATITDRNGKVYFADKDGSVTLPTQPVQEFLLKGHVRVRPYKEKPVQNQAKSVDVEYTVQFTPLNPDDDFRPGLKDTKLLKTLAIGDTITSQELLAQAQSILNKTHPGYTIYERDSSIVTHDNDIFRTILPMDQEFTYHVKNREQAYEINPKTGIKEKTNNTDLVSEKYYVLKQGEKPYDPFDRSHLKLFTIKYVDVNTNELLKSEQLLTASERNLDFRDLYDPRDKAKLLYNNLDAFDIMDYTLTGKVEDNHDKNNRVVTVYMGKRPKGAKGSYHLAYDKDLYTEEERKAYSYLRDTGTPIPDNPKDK

[11] = tested on: Streptococcus sp. 'group A'; test: Streptococcus pyogenes SK(-)GAS viability under kanamycin – luminescence, BacTiterGlo, confirmation, counter-screen for streptokinase expression inhibitor project, dose response (AID 1900); assay type: functional, organism-based
[12] = tested on: Streptococcus; test: GAS UMAA2166 growth inhibition – luminescence, BacTiterGlo, counter-screen for streptokinase expression inhibitor project, dose response (AID 1915); assay type: functional, organism-based;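 also: potency for reduction of bacterial viability or growth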
[13] = target: T5, Corticotropin-releasing factor receptor 2/Corticotropin-releasing factor-binding protein (Homo sapiens, UniProt P24387+Q13324); test: Dose Response confirmation of uHTS hits for small molecule antagonists of the CRF-binding protein and CRF-R2 receptor complex.; assay type: functional; conditions: read-out: IC50_Mean
T5 sequence (Q13324 whole entry): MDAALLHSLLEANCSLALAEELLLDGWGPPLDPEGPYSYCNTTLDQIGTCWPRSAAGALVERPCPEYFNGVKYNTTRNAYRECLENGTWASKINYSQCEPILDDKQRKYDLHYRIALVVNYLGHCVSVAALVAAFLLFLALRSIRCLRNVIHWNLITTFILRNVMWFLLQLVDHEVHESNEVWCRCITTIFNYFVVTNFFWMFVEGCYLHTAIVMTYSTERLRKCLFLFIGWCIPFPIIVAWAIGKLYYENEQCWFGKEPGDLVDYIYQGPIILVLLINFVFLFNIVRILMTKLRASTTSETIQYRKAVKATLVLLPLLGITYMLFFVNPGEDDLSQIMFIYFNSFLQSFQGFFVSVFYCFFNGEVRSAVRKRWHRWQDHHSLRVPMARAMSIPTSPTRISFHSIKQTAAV
T5 sequence (P24387 whole entry): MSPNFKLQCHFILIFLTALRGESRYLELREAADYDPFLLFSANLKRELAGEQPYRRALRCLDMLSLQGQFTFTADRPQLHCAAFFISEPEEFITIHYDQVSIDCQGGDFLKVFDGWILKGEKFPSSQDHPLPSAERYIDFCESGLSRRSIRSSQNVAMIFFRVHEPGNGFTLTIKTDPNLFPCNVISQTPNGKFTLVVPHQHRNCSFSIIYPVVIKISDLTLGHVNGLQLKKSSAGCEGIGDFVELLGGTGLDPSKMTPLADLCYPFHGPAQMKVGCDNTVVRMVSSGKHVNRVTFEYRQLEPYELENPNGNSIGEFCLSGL

[14] = target: T5, Corticotropin-releasing factor receptor 2/Corticotropin-releasing factor-binding protein; test: activators of CRF receptor 2 with binding protein – uHTS hits, confirmation (AID 602473); assay type: functional; conditions: read-out: EC50_Mean

Q: Which AC50 [1] does the source give for `O=c1c(Cl)c(NCc2ccccc2Cl)cnn1C12CC3CC(CC(C3)C1)C2` here?
A: 0.508 µM (active)

Q: What does the source list for `COc1ccccc1CN(Cc1cc2cc(C)cc(C)c2nc1O)Cc1nnnn1CC1CCCO1` (stereo not given)?
A: AC50 [2]: 20 µM (inconclusive); EC50 [3]: 44.9 µM (active); AC50 [4]: 14.1 µM (inconclusive); EC50 [5]: 54.9 µM (active)

Q: For `C[C@@H]1CN([C@@H](C)CO)C(=O)c2c(c3ccccc3n2C)-c2ccccc2CO[C@H]1CN(C)Cc1cccc(C(F)(F)F)c1`, which AC50 [6] is on record?
A: 3.05 µM (active)

Q: For `Nc1ccc(O)c(C(=O)O)c1` [MESALAMINE], which IC50 [7] is on record?
A: 19.1 µM (active)

Q: And the AC50 [4]?
A: 12.6 µM (inconclusive)

Q: Which IC50 [7] does the source give for `CCOc1ccc(NCc2nnc(SCC(=O)Nc3cc(C)on3)n2-c2ccc(OC)cc2)cc1` here?
A: 30.1 µM (active)

Q: What about the EC50 [8] of the same compound?
A: > 195 µM (not active)

Q: Which IC50 [7] does the source give for `Oc1ccc(N2CCN(C(=S)NCCc3ccccc3)CC2)cc1` here?
A: 8.73 µM (active)

Q: What about the IC50 [9] of the same compound?
A: 26.1 µM (active)

Q: Which AC50 [1] does the source give for `CC(C)(C)[C@@H]1CCC(=O)N(CC[C@H](Sc2ccccc2)c2ccccc2)CC1` here?
A: 3.92 µM (active)

Q: And the EC50 [10]?
A: > 150 µM (not active)

Q: What about the EC50 [11] of the same compound?
A: 6.49 µM (active)

Q: And the EC50 [12]?
A: 5.87 µM (active)

Q: Which results are given for `C=CCOc1cccc(CNc2ccc3[nH]c(O)nc3c2)c1`?
A: IC50 [7]: 14.4 µM (active); IC50 [13]: > 47.1 µM (inactive); EC50 [14]: > 53 µM (inactive)

Q: For `CCCCn1c(-c2cccc(C)c2)nc2cc3nc(O)c(C(C)C)nc3cc21`, which AC50 [1] is on record?
A: 6.63 µM (active)

Q: With `CCCc1cc(-c2[nH]nc(C(=O)OCC)c2-c2cscn2)c(O)cc1O` as the compound, how does the IC50 [7] read?
A: 23.4 µM (active)

Q: For `Cc1cc(NC(=O)c2cc(-c3ccncc3)nc3ccccc23)ccc1Br`, which AC50 [1] is on record?
A: 4.23 µM (active)

Q: For `COC(=O)C1=C(c2cccc(C#N)c2)C[C@@H]2CC[C@H]1N2C(=O)NC1Cc2ccccc2C1`, which AC50 [1] is on record?
A: > 195 µM (inactive)

Q: Which IC50 [7] does the source give for `O=C(c1ccc([N+](=O)[O-])cc1)N1CCN(c2cccc3[nH]ccc23)CC1` here?
A: 25.9 µM (active)

Q: For `O=C(Nc1nccs1)c1ccc(COc2ccccc2Br)o1`, which AC50 [1] is on record?
A: 3.14 µM (active)
